From patent EP4796536A1, “CRYSTAL FORMS OF COMPOUND HAVING FUSED FIVE- AND SIX-MEMBERED RINGS, PREPARATION METHOD THEREFOR, AND USE THEREOF” (Hangzhou Polymed Biopharmaceuticals, Inc., priority 2023, dated 2025)
Values after ≈ are worked out from the molar mass of the structure shown. Like-named read-outs stand apart in the source and are kept apart here.

What was measured:
[1] = Solubility of crystal forms in buffers, biorelevant media and water (HPLC, XRPD of residual solid); type: physicochemical; conditions: for pH (24 h): 5 mg/mL suspension stirred at 37°C, pH of the solution at 24 h; for Solubility at 37°C (mg/mL) 2 h: 120 min; for Solubility at 37°C (mg/mL) 24 h / solubility: 1440 min; for solubility at 2 h: read-out: Solubility at 37°C (mg/mL) 2 h
Procedure: The solubility of the two crystal forms at 2 hours and 24 hours and the pH of the solution at 24 hours were tested. The solid was filtered, and the resulting solid was tested for XRPD.

[2] = Mechanical stability: dry grinding, wet grinding, tableting (XRPD); type: physicochemical; conditions: for crystal form of the solid (XRPD): wet grinding, and tableting
Procedure: Dry grinding: approximately 10 mg of the starting sample was ground for 3 minutes in a mortar, and then subjected to XRPD testing.
Wet grinding: approximately 10 mg of the starting sample was ground with 1 to 2 drops of solvent for 3 minutes in a mortar, and then subjected to XRPD testing.
Tableting experiment: approximately 10 mg of the starting sample was compressed at 20 MPa for 3 minutes, and then subjected to XRPD testing.

[3] = Hygroscopicity by dynamic vapor sorption (DVS); type: physicochemical; conditions: for hygroscopic weight gain: 80% RH, 25°C; for hygroscopicity evaluation: DVS, based on weight gain at 80% RH
Procedure: Samples are analyzed for hygroscopicity using Intrinsic DVS ([…], UK). Approximately 10 to 30 mg of sample is used for testing. The testing chamber is controlled at a temperature of 25 ± 1°C with the specific testing parameters shown below: […]

[4] = Physicochemical stability of crystal forms (HPLC purity, XRPD); conditions: for change in the crystal form after stability testing: all stability conditions
[5] = FeSSIF, stirring at 37°C for 24 hours
[6] = XRPD of residual solid after stirring in FaSSIF at 37°C for 24 hours
[7] = XRPD of residual solid after stirring in FeSSIF at 37°C for 24 hours
[8] = XRPD of residual solid after stirring in SGF at 37°C for 24 hours
[9] = XRPD of residual solid after stirring in Water at 37°C for 24 hours
[10] = XRPD of residual solid after stirring in pH 1.2 buffer at 37°C for 24 hours
[11] = XRPD of residual solid after stirring in pH 3.0 buffer at 37°C for 24 hours
[12] = XRPD of residual solid after stirring in pH 4.5 buffer at 37°C for 24 hours
[13] = XRPD of residual solid after stirring in pH 6.8 buffer at 37°C for 24 hours
[14] = XRPD of residual solid after stirring in pH 7.4 buffer at 37°C for 24 hours
[15] = Dry grinding, 3 minutes in a mortar, no solvent
[16] = Tableting, 20 MPa for 3 minutes, solvent EA
[17] = Wet grinding, solvent EtOH, 3 minutes in a mortar
[18] = Wet grinding, solvent Water, 3 minutes in a mortar
[19] = after grinding and tableting experiments, versus starting sample
[20] = after wet grinding and tableting

COc1cc2nn(C3CC4(CCN(C(=O)C5CCN(c6ccc7c(c6)C(=O)N(C6CCC(=O)NC6=O)C7=O)CC5)CC4)C3)cc2cc1NC(=O)c1cccc(C(F)(F)F)n1 (single isomer, unassigned) [crystal form A]
pH (24 h) ([1]; FaSSIF): 6.570
Solubility at 37°C (mg/mL) 2 h ([1]; FaSSIF, 37°C): 0.00461 mg/mL (≈ 5.58 µM)
Solubility at 37°C (mg/mL) 24 h ([1]; FaSSIF, 37°C, 24 h): 0.00285 mg/mL (≈ 3.45 µM)
solubility [1, 5]: approximately 0.004 mg/mL
pH (24 h) ([1]; FeSSIF): 5.032
Solubility at 37°C (mg/mL) 2 h ([1]; FeSSIF, 37°C): 0.00391 mg/mL (≈ 4.73 µM)
Solubility at 37°C (mg/mL) 24 h ([1]; FeSSIF, 37°C, 24 h): 0.00414 mg/mL (≈ 5.01 µM)
pH (24 h) ([1]; SGF): 1.225
pH (24 h) ([1]; Water): 7.311
Solubility at 37°C (mg/mL) 24 h ([1]; Water, 37°C, 24 h): 0.00075 mg/mL (≈ 0.907 µM)
Crystal form [1, 6]: Crystal form A
Crystal form [1, 7]: Crystal form A
Crystal form [1, 8]: Crystal form A
Crystal form [1, 9]: Crystal form A
Crystal form [1, 10]: Crystal form A
Crystal form [1, 11]: Crystal form A
Crystal form [1, 12]: Crystal form A
Crystal form [1, 13]: Crystal form A
Crystal form [1, 14]: Crystal form A
solubility at 24 h ([1]; fassif, stirring at 37°C for 24 hours, read-out: solubility): ~0.004 mg/mL (≈ 4.84 µM)
pH (24 h) ([1]; pH 1.2 buffer): 1.214
pH (24 h) ([1]; pH 3.0 buffer): 3.078
pH (24 h) ([1]; pH 4.5 buffer): 4.584
Solubility at 37°C (mg/mL) 2 h ([1]; pH 4.5 buffer, 37°C): 0.00026 mg/mL (≈ 0.314 µM)
pH (24 h) ([1]; pH 6.8 buffer): 6.833
pH (24 h) ([1]; pH 7.4 buffer): 7.428
solubility at 2 h ([1]; water, 37°C): 0.00052 mg/mL (≈ 0.629 µM)
Solid color [2, 15]: Slightly deepened, yellow
XRPD results [2, 15]: Crystal form A (low degree of crystallinity)
Solid color [2, 16]: Slightly deepened, yellow
XRPD results [2, 16]: Crystal form A
Solid color [2, 17]: Slightly deepened, yellow
XRPD results [2, 17]: Crystal form A
Solid color [2, 18]: Slightly deepened, yellow
XRPD results [2, 18]: Crystal form A
degree of crystallinity of the solid ([2]; after dry grinding): reduction in the degree of crystallinity
crystal form of the solid (XRPD) ([2]; after dry grinding): no change in the crystal form
Solid color [2, 19]: slightly darker
degree of crystallinity of the solid [2, 20]: almost no change in the degree of crystallinity
hygroscopic weight gain [3]: 2.213%
hygroscopicity evaluation [3]: hygroscopic
crystal form after DVS testing [3]: no change in the crystal form
Purity (%) ([4]; 25°C/60% RH, open, 1 week): 96.38%
XRPD ([4]; 25°C/60% RH, open, 1 week): Unchanged
Purity (%) ([4]; 40°C/75% RH, open, 1 week): 96.39%
XRPD ([4]; 40°C/75% RH, open, 1 week): Unchanged
Purity (%) ([4]; 60°C, closed, 1 week): 96.40%
XRPD ([4]; 60°C, closed, 1 week): Unchanged
Purity (%) ([4]; Initial): 96.41%
XRPD ([4]; Initial): Crystal form A
Purity (%) ([4]; Light, closed, 10 days): 96.41%
XRPD ([4]; Light, closed, 10 days): Unchanged
Purity (%) ([4]; Light, control, 10 days): 96.42%
XRPD ([4]; Light, control, 10 days): Unchanged
change in the crystal form after stability testing [4]: no change in the crystal form
degradation ([4]; all stability conditions (60°C, 25°C/60% RH, 40°C/75% RH 1 week; light 10 days)): no significant degradation

COc1cc2nn(C3CC4(CCN(C(=O)C5CCN(c6ccc7c(c6)C(=O)N(C6CCC(=O)NC6=O)C7=O)CC5)CC4)C3)cc2cc1NC(=O)c1cccc(C(F)(F)F)n1 (single isomer, unassigned) [crystal form I]
pH (24 h) ([1]; FaSSIF): 6.501
Solubility at 37°C (mg/mL) 2 h ([1]; FaSSIF, 37°C): 0.00141 mg/mL (≈ 1.71 µM)
solubility [1, 5]: approximately 0.01 mg/mL
pH (24 h) ([1]; FeSSIF): 5.085
Solubility at 37°C (mg/mL) 24 h ([1]; FeSSIF, 37°C, 24 h): 0.01099 mg/mL (≈ 13.3 µM)
pH (24 h) ([1]; SGF): 1.266
pH (24 h) ([1]; Water): 6.749
Solubility at 37°C (mg/mL) 2 h ([1]; Water, 37°C): 0.00089 mg/mL (≈ 1.08 µM)
Solubility at 37°C (mg/mL) 24 h ([1]; Water, 37°C, 24 h): 0.00025 mg/mL (≈ 0.302 µM)
Crystal form [1, 6]: Crystal form I
Crystal form [1, 7]: Crystal form I
Crystal form [1, 8]: Crystal form I
Crystal form [1, 9]: Crystal form I
Crystal form [1, 10]: Crystal form I
Crystal form [1, 11]: Crystal form I
Crystal form [1, 12]: Crystal form I
Crystal form [1, 13]: Crystal form I
Crystal form [1, 14]: Crystal form I
solubility at 2 h ([1]; buffer, pH 1.2, pH 1.2 buffer, 37°C): 0.00084 mg/mL (≈ 1.02 µM)
solubility at 24 h ([1]; buffer, pH 1.2, pH 1.2 buffer, 37°C, 24 h, read-out: Solubility at 37°C (mg/mL) 24 h): 0.00081 mg/mL (≈ 0.98 µM)
solubility at 2 h ([1]; buffer, pH 3, pH 3.0 buffer, 37°C): 0.00048 mg/mL (≈ 0.581 µM)
solubility at 24 h ([1]; buffer, pH 3, pH 3.0 buffer, 37°C, 24 h, read-out: Solubility at 37°C (mg/mL) 24 h): 0.00077 mg/mL (≈ 0.931 µM)
solubility at 2 h ([1]; buffer, pH 4.5, pH 4.5 buffer, 37°C): 0.00019 mg/mL (≈ 0.23 µM)
solubility at 24 h ([1]; buffer, pH 4.5, pH 4.5 buffer, 37°C, 24 h, read-out: Solubility at 37°C (mg/mL) 24 h): 0.00087 mg/mL (≈ 1.05 µM)
solubility at 2 h ([1]; buffer, pH 6.8, pH 6.8 buffer, 37°C): 0.00046 mg/mL (≈ 0.556 µM)
solubility at 24 h ([1]; buffer, pH 6.8, pH 6.8 buffer, 37°C, 24 h, read-out: Solubility at 37°C (mg/mL) 24 h): 0.00084 mg/mL (≈ 1.02 µM)
solubility at 2 h ([1]; buffer, pH 7.4, pH 7.4 buffer, 37°C): 0.00101 mg/mL (≈ 1.22 µM)
solubility at 24 h ([1]; buffer, pH 7.4, pH 7.4 buffer, 37°C, 24 h, read-out: Solubility at 37°C (mg/mL) 24 h): 0.00079 mg/mL (≈ 0.955 µM)
solubility at 24 h ([1]; fassif, 37°C, 24 h, read-out: Solubility at 37°C (mg/mL) 24 h): 0.00148 mg/mL (≈ 1.79 µM)
solubility at 2 h ([1]; fessif, 37°C): 0.004 mg/mL (≈ 4.84 µM)
pH (24 h) ([1]; pH 1.2 buffer): 1.234
pH (24 h) ([1]; pH 3.0 buffer): 3.145
pH (24 h) ([1]; pH 4.5 buffer): 4.583
pH (24 h) ([1]; pH 6.8 buffer): 6.805
pH (24 h) ([1]; pH 7.4 buffer): 7.439
solubility at 2 h ([1]; sgf, 37°C): 0.00158 mg/mL (≈ 1.91 µM)
solubility at 24 h ([1]; sgf, 37°C, 24 h, read-out: Solubility at 37°C (mg/mL) 24 h): 0.00376 mg/mL (≈ 4.55 µM)
Solid color [2, 15]: Yellow, essentially no change
XRPD results [2, 15]: Crystal form I (low degree of crystallinity)
Solid color [2, 16]: Yellow, essentially no change
XRPD results [2, 16]: Crystal form I
Solid color [2, 17]: Yellow, essentially no change
XRPD results [2, 17]: Crystal form I
Solid color [2, 18]: Yellow, essentially no change
XRPD results [2, 18]: Crystal form I
degree of crystallinity of the solid ([2]; after dry grinding): reduction in the degree of crystallinity
crystal form of the solid (XRPD) ([2]; after dry grinding): no change in the crystal form
Solid color [2, 19]: essentially no change in the solid color
degree of crystallinity of the solid [2, 20]: almost no change in the degree of crystallinity
hygroscopic weight gain [3]: 0.3629%
hygroscopicity evaluation [3]: slightly hygroscopic
crystal form after DVS testing [3]: no change in the crystal form
Purity (%) ([4]; 25°C/60% RH, open, 1 week): 98.96%
XRPD ([4]; 25°C/60% RH, open, 1 week): Unchanged
Purity (%) ([4]; 40°C/75% RH, open, 1 week): 98.96%
XRPD ([4]; 40°C/75% RH, open, 1 week): Unchanged
Purity (%) ([4]; 60°C, closed, 1 week): 98.80%
XRPD ([4]; 60°C, closed, 1 week): Unchanged
Purity (%) ([4]; Initial): 98.97%
Purity (%) ([4]; Light, closed, 10 days): 98.96%
XRPD ([4]; Light, closed, 10 days): Unchanged
Purity (%) ([4]; Light, control, 10 days): 98.97%
XRPD ([4]; Light, control, 10 days): Unchanged
change in the crystal form after stability testing [4]: no change in the crystal form
degradation ([4]; closed stability chamber at 60°C for 1 week): 0.17%
degradation ([4]; other stability conditions (25°C/60% RH, 40°C/75% RH 1 week; light 10 days)): no significant degradation
